Reference: ChEMBL document CHEMBL4382269, “Discovery of Potent, Efficient, and Selective Inhibitors of Phosphoinositide 3-Kinase δ through a Deconstruction and Regrowth Approach” (J Med Chem, 2018)
≈ marks a conversion by molar mass, not a printed value. Each block holds one molecule with its values, some of them ahead of it.

Assays:
[1] = target: Phosphatidylinositol 4,5-bisphosphate 3-kinase catalytic subunit beta isoform (Homo sapiens, UniProt P42338); experiment: Inhibition of PI3Kbeta (unknown origin) using PIP2 as substrate preincubated for 15 mins followed by substrate addition measured after 60 mins by HTRF method
[2] = target: Phosphatidylinositol 4,5-bisphosphate 3-kinase catalytic subunit alpha isoform (Homo sapiens, UniProt P42336); experiment: Inhibition of PI3Kalpha (unknown origin) using PIP2 as substrate preincubated for 15 mins followed by substrate addition measured after 60 mins by HTRF method
[3] = target: T1, Phosphatidylinositol 4,5-bisphosphate 3-kinase catalytic subunit delta isoform (Homo sapiens, UniProt O00329); experiment: Inhibition of PI3Kdelta (unknown origin) using PIP2 as substrate preincubated for 15 mins followed by substrate addition measured after 60 mins by HTRF method
T1 sequence (O00329 whole entry): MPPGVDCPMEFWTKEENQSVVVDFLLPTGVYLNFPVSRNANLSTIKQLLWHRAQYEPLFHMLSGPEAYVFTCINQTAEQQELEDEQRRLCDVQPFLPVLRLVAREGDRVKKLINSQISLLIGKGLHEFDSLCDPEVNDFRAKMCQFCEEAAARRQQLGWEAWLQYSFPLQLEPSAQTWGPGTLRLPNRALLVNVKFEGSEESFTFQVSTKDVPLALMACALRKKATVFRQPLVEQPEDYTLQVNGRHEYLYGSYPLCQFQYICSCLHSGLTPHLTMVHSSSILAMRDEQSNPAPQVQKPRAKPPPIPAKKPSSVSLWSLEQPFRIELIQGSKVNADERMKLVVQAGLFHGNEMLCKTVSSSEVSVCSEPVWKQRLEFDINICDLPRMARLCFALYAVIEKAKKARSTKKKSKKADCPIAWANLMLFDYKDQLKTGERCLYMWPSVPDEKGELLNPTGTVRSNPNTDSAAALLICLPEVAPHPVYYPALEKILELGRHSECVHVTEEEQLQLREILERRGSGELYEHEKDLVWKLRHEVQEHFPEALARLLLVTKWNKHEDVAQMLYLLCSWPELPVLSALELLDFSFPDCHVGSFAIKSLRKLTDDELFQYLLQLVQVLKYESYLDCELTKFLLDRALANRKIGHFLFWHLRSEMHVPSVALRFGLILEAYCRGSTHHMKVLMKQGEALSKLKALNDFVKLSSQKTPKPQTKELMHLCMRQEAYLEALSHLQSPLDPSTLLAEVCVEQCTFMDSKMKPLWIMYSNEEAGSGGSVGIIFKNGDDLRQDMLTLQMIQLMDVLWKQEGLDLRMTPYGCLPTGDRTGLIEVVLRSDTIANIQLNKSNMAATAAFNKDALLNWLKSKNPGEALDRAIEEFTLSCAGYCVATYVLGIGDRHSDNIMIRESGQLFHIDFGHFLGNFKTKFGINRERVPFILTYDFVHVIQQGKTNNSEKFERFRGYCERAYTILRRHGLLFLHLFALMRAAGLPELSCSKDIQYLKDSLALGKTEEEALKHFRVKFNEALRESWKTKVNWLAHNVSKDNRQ

[4] = target: Phosphatidylinositol 4,5-bisphosphate 3-kinase catalytic subunit gamma isoform (Homo sapiens, UniProt P48736); experiment: Inhibition of PI3Kgamma (unknown origin) using PIP2 as substrate preincubated for 15 mins followed by substrate addition measured after 60 mins by HTRF method
[5] = species: Homo sapiens; experiment: Selectivity ratio of IC50 for IKK1 (unknown origin) to IC50 for PI3Kdelta (unknown origin)
[6] = species: Homo sapiens; experiment: Selectivity ratio of IC50 for PI4KB (unknown origin) to IC50 for PI3Kdelta (unknown origin)
[7] = species: Homo sapiens; experiment: Selectivity ratio of IC50 for LRRK2 (unknown origin) to IC50 for PI3Kdelta (unknown origin)
[8] = species: Homo sapiens; experiment: Selectivity ratio of IC50 for JAK3 (unknown origin) to IC50 for PI3Kdelta (unknown origin)
[9] = species: Homo sapiens; experiment: Selectivity ratio of IC50 for SPHK2 (unknown origin) to IC50 for PI3Kdelta (unknown origin)
[10] = species: Homo sapiens; experiment: Selectivity ratio of IC50 for EGFR (unknown origin) to IC50 for PI3Kdelta (unknown origin)
[11] = species: Homo sapiens; experiment: Selectivity ratio of IC50 for IKK2 (unknown origin) to IC50 for PI3Kdelta (unknown origin)
[12] = species: Homo sapiens; experiment: Selectivity ratio of IC50 for ITK (unknown origin) to IC50 for PI3Kdelta (unknown origin)
[13] = species: Homo sapiens; experiment: Selectivity ratio of IC50 for JAK2 (unknown origin) to IC50 for PI3Kdelta (unknown origin)
[14] = Clearance in human microsomes at 0.5 uM in presence of NADPH measured up to 30 mins by LC-MS/MS analysis; type: ADME, Microsome; conditions: 0.5 h
[15] = species: Homo sapiens; experiment: Selectivity ratio of IC50 for p38alpha (unknown origin) to IC50 for PI3Kdelta (unknown origin)
[16] = test system: PBMC; experiment: Inhibition of cytostim stimulated IFNgamma production in human PBMC […] by electrochemiluminescence assay; type: functional, cell-based
[17] = species: Homo sapiens; experiment: Selectivity ratio of IC50 for ASK1 (unknown origin) to IC50 for PI3Kdelta (unknown origin)
[18] = species: Homo sapiens; experiment: Selectivity ratio of IC50 for SPHK1 (unknown origin) to IC50 for PI3Kdelta (unknown origin)
[19] = species: Homo sapiens; experiment: Selectivity ratio of IC50 for CHKA (unknown origin) to IC50 for PI3Kdelta (unknown origin)
[20] = species: Homo sapiens; experiment: Selectivity ratio of IC50 for PIK3C2B (unknown origin) to IC50 for PI3Kdelta (unknown origin)
[21] = species: Homo sapiens; experiment: Selectivity ratio of IC50 for SYK (unknown origin) to IC50 for PI3Kdelta (unknown origin)
[22] = species: Homo sapiens; experiment: Selectivity ratio of IC50 for PI4KA (unknown origin) to IC50 for PI3Kdelta (unknown origin)
[23] = species: Homo sapiens; experiment: Selectivity ratio of IC50 for mTOR (unknown origin) to IC50 for PI3Kdelta (unknown origin)
[24] = species: Homo sapiens; experiment: Selectivity ratio of IC50 for BTK (unknown origin) to IC50 for PI3Kdelta (unknown origin)
[25] = Clearance in rat microsomes at 0.5 uM in presence of NADPH measured up to 30 mins by LC-MS/MS analysis; type: ADME, Microsome; conditions: 0.5 h
[26] = species: Homo sapiens; experiment: Selectivity ratio of IC50 for DAG zeta (unknown origin) to IC50 for PI3Kdelta (unknown origin)
[27] = species: Homo sapiens; experiment: Selectivity ratio of IC50 for DAG beta (unknown origin) to IC50 for PI3Kdelta (unknown origin)
[28] = species: Homo sapiens; experiment: Selectivity ratio of IC50 for PIK3C3/PIK3R4 (unknown origin) to IC50 for PI3Kdelta (unknown origin)
[29] = target: Voltage-gated inwardly rectifying potassium channel KCNH2 (Homo sapiens, UniProt Q12809); experiment: Inhibition of human ERG expressed in CHO cells after 75 mins by fluorescence polarization assay
[30] = species: Homo sapiens; experiment: Selectivity ratio of IC50 for Aurora B (unknown origin) to IC50 for PI3Kdelta (unknown origin)
[31] = target: serum albumin (Homo sapiens, UniProt P02768); experiment: Binding affinity to human serum albumin by HPLC analysis; type: ADME; conditions: read-out: PB (converted)
[32] = species: Homo sapiens; experiment: Selectivity ratio of IC50 for ROCK (unknown origin) to IC50 for PI3Kdelta (unknown origin)
[33] = species: Homo sapiens; experiment: Selectivity ratio of IC50 for JNK1 (unknown origin) to IC50 for PI3Kdelta (unknown origin)
[34] = species: Homo sapiens; experiment: Selectivity ratio of IC50 for DAG gamma (unknown origin) to IC50 for PI3Kdelta (unknown origin)
[35] = species: Homo sapiens; experiment: Selectivity ratio of IC50 for PI3Kgamma (unknown origin) to IC50 for PI3Kdelta (unknown origin)
[36] = Kinetic solubility of the compound in phosphate buffer saline at pH 7.4 after 1 hr by CLND method; type: physicochemical; conditions: phosphate buffered saline, read-out: Kinetic_solubility
[37] = species: Homo sapiens; experiment: Selectivity ratio of IC50 for PI3Kalpha (unknown origin) to IC50 for PI3Kdelta (unknown origin)
[38] = species: Homo sapiens; experiment: Selectivity ratio of IC50 for LCK (unknown origin) to IC50 for PI3Kdelta (unknown origin)
[39] = species: Homo sapiens; experiment: Selectivity ratio of IC50 for PI3Kbeta (unknown origin) to IC50 for PI3Kdelta (unknown origin)
[40] = species: Homo sapiens; experiment: Selectivity ratio of IC50 for CHKB (unknown origin) to IC50 for PI3Kdelta (unknown origin)
[41] = species: Homo sapiens; experiment: Selectivity ratio of IC50 for PIP4K2A (unknown origin) to IC50 for PI3Kdelta (unknown origin)
[42] = species: Homo sapiens; experiment: Selectivity ratio of IC50 for DNA-PK (unknown origin) to IC50 for PI3Kdelta (unknown origin)

Sequence of Phosphatidylinositol 4,5-bisphosphate 3-kinase catalytic subunit gamma isoform (P48736 whole entry, canonical isoform): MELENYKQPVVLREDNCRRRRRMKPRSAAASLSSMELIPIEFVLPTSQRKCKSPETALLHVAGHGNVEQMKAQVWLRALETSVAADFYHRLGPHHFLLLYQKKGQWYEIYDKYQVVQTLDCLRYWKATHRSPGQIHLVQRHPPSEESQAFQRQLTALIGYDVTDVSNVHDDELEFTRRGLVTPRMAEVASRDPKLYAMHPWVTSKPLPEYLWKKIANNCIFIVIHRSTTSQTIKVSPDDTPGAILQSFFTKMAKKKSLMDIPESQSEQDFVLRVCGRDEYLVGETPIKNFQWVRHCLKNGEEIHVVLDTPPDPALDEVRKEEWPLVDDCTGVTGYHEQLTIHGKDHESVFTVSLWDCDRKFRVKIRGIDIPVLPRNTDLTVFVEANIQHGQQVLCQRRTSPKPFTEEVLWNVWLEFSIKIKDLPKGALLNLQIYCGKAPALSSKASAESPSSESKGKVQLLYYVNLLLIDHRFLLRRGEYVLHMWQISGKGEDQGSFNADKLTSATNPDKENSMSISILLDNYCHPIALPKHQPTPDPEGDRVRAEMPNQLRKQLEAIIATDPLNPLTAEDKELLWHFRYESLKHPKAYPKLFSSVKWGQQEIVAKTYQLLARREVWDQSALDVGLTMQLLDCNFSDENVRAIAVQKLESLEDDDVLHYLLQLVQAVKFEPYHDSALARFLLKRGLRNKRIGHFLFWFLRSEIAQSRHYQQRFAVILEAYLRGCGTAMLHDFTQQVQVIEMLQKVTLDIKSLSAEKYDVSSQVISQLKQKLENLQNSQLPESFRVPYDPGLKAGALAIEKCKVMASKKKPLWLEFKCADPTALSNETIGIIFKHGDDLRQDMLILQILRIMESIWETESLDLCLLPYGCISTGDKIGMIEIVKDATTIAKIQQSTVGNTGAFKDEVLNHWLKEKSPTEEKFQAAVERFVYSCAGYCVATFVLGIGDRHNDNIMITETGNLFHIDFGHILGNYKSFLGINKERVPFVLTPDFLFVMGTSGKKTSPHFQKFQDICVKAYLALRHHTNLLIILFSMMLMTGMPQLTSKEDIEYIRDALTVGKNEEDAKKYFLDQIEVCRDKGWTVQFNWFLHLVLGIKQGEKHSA
Sequence of Phosphatidylinositol 4,5-bisphosphate 3-kinase catalytic subunit alpha isoform (P42336 whole entry, canonical isoform): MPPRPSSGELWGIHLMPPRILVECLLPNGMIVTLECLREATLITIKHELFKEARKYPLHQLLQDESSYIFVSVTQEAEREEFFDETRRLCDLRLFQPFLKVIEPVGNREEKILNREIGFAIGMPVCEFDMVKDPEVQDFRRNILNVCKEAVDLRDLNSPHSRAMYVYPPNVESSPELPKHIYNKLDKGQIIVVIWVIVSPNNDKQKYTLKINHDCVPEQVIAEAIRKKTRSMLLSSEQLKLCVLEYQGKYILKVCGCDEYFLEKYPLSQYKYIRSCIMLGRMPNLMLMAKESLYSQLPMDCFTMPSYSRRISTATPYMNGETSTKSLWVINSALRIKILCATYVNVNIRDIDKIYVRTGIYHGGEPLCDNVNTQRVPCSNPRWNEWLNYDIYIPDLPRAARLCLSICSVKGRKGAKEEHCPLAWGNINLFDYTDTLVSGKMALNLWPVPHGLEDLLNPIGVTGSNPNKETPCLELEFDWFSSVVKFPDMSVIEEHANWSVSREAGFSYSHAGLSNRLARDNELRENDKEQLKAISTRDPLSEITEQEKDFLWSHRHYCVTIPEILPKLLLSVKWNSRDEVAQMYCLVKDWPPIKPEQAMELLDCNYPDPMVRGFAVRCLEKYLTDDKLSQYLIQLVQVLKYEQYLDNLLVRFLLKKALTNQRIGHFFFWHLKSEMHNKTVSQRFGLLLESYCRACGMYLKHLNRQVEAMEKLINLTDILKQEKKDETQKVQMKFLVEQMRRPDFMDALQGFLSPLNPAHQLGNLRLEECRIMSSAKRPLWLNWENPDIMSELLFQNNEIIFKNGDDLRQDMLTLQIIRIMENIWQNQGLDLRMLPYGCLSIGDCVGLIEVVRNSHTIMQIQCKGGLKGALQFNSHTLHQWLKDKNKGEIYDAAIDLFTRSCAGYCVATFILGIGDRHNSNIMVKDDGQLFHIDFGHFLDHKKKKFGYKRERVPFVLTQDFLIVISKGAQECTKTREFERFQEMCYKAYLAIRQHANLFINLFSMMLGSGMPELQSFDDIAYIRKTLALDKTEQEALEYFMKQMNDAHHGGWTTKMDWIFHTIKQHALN
Sequence of Phosphatidylinositol 4,5-bisphosphate 3-kinase catalytic subunit beta isoform (P42338 whole entry, canonical isoform): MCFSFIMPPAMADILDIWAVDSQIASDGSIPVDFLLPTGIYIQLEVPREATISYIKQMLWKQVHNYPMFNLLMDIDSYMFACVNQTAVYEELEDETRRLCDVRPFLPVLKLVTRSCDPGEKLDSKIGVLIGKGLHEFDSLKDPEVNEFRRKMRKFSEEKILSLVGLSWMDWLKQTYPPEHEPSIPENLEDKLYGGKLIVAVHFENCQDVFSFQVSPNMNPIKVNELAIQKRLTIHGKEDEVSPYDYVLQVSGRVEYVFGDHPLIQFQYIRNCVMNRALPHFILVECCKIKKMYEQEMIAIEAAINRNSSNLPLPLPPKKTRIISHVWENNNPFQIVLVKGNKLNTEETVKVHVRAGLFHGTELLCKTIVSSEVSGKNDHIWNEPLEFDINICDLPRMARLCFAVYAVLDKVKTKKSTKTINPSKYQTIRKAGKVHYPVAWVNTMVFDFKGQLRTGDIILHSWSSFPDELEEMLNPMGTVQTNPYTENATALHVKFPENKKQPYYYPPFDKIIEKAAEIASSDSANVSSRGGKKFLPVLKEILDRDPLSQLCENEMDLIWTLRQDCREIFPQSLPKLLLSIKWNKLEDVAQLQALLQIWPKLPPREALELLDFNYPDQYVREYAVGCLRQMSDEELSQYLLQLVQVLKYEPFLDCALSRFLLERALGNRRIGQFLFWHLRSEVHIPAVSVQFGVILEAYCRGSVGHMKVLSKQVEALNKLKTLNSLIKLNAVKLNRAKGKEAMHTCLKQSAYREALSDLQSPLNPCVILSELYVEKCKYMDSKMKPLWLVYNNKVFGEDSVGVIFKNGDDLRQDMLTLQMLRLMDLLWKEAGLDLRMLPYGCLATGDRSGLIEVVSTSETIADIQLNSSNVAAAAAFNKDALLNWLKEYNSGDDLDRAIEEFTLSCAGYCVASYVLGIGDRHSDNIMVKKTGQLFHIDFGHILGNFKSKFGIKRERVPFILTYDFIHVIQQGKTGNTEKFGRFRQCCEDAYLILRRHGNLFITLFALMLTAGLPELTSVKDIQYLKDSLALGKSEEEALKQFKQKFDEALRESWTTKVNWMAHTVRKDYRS
Sequence of serum albumin (P02768 whole entry): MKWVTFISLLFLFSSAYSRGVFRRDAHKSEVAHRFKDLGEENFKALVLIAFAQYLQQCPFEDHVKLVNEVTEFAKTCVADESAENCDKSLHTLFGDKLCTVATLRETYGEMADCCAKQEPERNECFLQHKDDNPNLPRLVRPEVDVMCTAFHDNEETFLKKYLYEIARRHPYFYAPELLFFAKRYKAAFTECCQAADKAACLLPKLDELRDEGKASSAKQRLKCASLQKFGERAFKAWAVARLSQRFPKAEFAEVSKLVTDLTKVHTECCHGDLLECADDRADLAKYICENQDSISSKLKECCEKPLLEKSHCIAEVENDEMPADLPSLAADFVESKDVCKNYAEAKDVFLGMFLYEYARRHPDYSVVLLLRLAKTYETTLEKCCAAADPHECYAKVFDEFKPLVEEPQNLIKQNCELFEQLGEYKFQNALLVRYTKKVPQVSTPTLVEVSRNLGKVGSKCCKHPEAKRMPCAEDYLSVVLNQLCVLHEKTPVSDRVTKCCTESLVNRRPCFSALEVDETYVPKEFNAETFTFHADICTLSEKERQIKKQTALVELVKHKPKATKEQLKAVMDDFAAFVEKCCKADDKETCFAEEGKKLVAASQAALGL
Sequence of Voltage-gated inwardly rectifying potassium channel KCNH2 (Q12809 whole entry): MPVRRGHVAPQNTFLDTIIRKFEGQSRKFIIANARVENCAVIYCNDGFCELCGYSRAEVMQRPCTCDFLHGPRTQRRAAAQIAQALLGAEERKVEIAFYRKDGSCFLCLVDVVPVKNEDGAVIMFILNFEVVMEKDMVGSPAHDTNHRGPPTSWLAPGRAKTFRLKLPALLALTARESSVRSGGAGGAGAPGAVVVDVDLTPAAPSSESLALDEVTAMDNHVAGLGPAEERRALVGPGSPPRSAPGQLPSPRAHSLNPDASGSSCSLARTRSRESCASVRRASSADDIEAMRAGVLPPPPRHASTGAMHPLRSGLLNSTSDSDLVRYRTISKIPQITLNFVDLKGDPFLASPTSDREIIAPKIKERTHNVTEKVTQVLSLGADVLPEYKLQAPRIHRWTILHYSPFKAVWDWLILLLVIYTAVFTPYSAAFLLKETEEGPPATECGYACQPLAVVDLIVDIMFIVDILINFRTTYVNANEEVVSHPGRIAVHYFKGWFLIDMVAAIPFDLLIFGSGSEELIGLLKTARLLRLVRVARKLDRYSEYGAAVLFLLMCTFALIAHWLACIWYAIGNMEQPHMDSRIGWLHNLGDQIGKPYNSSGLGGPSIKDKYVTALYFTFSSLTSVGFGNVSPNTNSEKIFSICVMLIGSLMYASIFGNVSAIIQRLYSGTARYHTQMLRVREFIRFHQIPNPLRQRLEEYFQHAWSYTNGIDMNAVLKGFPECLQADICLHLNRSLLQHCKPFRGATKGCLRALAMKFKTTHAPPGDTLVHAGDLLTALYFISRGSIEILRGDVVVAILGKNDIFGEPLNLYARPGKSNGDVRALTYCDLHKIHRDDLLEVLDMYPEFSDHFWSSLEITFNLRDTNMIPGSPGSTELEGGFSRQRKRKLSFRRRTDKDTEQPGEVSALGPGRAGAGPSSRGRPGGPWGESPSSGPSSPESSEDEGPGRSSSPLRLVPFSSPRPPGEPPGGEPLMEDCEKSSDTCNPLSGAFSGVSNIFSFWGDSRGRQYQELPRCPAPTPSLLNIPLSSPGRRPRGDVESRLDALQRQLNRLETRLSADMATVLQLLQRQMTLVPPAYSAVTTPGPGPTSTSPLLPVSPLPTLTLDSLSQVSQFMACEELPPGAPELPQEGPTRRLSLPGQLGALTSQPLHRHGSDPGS

IC50 [1]: 15.8 µM
IC50 [2]: 31.6 µM
IC50 [3]: 1 µM
IC50 [4]: 12.6 µM
SMILES: O=S(=O)(Nc1cc(-c2ccccc2)cnc1Cl)c1ccccc1

IC50 [1]: 2.51 µM
IC50 [2]: 2.51 µM
IC50 [3]: 0.158 µM
IC50 [4]: 0.794 µM
SMILES: CS(=O)(=O)Nc1cc(-c2ccc3ccncc3c2)cnc1Cl

IC50 [1]: 15.8 µM
IC50 [2]: > 31.6 µM
IC50 [3]: 3.98 µM
IC50 [4]: 15.8 µM
SMILES: c1cc(-c2ccc3ccncc3c2)c2cc[nH]c2c1

The next lines start with the molecule.

SMILES: COc1ncc(C2=CCOCC2)cc1NS(=O)(=O)c1cn(Cc2ccccc2)c(C)n1
Ratio IC50 [5]: > 100
Ratio IC50 [6]: > 100
IC50 [1]: 1 µM
Ratio IC50 [7]: > 100
Ratio IC50 [8]: > 100
Ratio IC50 [9]: > 100
IC50 [2]: 0.631 µM
Ratio IC50 [10]: > 100
Ratio IC50 [11]: > 100
Ratio IC50 [12]: > 100
Ratio IC50 [13]: > 100
clearance [14]: 7.9 mL/min/g
Ratio IC50 [15]: > 100
IC50 [16]: 0.0501 µM
IC50 [3]: 0.00631 µM
Ratio IC50 [17]: > 100
Ratio IC50 [18]: > 100
Ratio IC50 [19]: > 100
Ratio IC50 [20]: > 100
Ratio IC50 [21]: > 100
Ratio IC50 [22]: > 100
Ratio IC50 [23]: > 100
Ratio IC50 [24]: > 100
clearance [25]: 17.4 mL/min/g
IC50 [4]: 1 µM
Ratio IC50 [26]: > 100
Ratio IC50 [27]: > 100
Ratio IC50 [28]: > 100
IC50 [29]: > 50.1 µM
Ratio IC50 [30]: > 100
fraction unbound [31]: 0.101
Ratio IC50 [32]: > 100
Ratio IC50 [33]: > 100
Ratio IC50 [34]: > 100
Ratio IC50 [35]: > 100
solubility kinetic at 1 h [36]: 12 µg/mL (≈ 27.2 µM)
Ratio IC50 [37]: > 100
Ratio IC50 [38]: > 100
Ratio IC50 [39]: > 100
Ratio IC50 [40]: > 100
Ratio IC50 [41]: > 100
Ratio IC50 [42]: > 100

SMILES: O=S(=O)(Nc1cc(C2=CCOCC2)cnc1Cl)c1ccccc1
IC50 [1]: 0.126 µM
IC50 [2]: 0.501 µM
IC50 [3]: 0.01 µM
IC50 [4]: 0.501 µM

SMILES: CS(=O)(=O)Nc1cc(-c2cnc(N)nc2)cnc1Cl
IC50 [1]: 0.158 µM
IC50 [2]: 1.58 µM
IC50 [3]: 0.126 µM
IC50 [4]: 0.2 µM
